Experimental findings from patent US20210356472A1, “METHODS AND COMPOSITIONS FOR DETECTION AND VISUALIZATION OF OXIDATIVE STRESS-INDUCED CARBONYLATION IN CELLS” (The Research Foundation for The State University of New York, priority 2020, published 2021) are described below.

Data set [1] in a line: Absorption and emission spectra of hydrazide fluorophores and their hydrazones with propanal. It is filed as physicochemical. The note with it: 10 mM PB, pH 7 containing 0.5% DMSO (v/v); for Hydrazide + propanal Abs max / Hydrazide + propanal Em max: corresponding hydrazone with propanal. As to the method:
FIGS. 15A-15F show absorption (top) and emission (bottom) spectra of (FIGS. 15A, 15B) DCCH, (FIGS. 15C, 15D) BODIPYH, and (FIGS. 15E, 15F) TxRH and their corresponding hydrazones with propanal in 10 mM PB, pH 7 containing 0.5% DMSO (v/v). The excitation wavelengths used for obtaining the emission spectra are as follows: DCCH (ex: 405 nm), BODIPYH (ex: 450 nm), TxRH (543 nm). The arrow in the absorption spectra denotes the wavelength of the excitation laser used in the microscopy experiments.

The test system of the next data set is A549 cells. Put plainly: Detection of carbonylation in live cells with hydrazide fluorophores. It is filed as cell-based. Here is the method:
At the end of the incubation period with the OSA or vehicle, 1 μL of 2 mM fluorophore (final concentrations: fluorophore=10 μM; DMSO=0.5%, v/v) is added to one corner of each well, taking care not to touch the bottom of the well with the pipet tip, and mixed well, by gently moving the chambered coverglass in a circular motion (clockwise as well as counter-clockwise). The coverglass is then returned to the cell culture incubator and incubated for 30-45 min. The difference in fluorescence between the control and the sample may be affected by the time of incubation with the fluorophore and the cell line. The incubation time is adjusted based on the cell line and oxidant used. The medium is discarded and 500 μL fresh medium added to each well. The coverglass is returned to the cell culture incubator for 3 min. The washing step is repeated two more times. The final wash medium is discarded, and 200 μL of fresh medium added, and the cells imaged by, e.g., confocal microscopy.
A549 cells were treated with vehicle (0.1% DMSO, v/v) or 100 μM menadione for 1 h, followed by 10 μM DCCH, BODIPYH, TxRH or TFCH for 30 min. The medium was discarded, and fresh medium was added to the cells and allowed to incubate for 5 min. After an additional round of medium change, the cells were imaged live using a confocal laser scanning microscope.
FIGS. 9A-9C show quantitative analysis of carbonyls in live cells in high throughput platform: A549 cells grown in standard media (control) or serum free media (serum starved) for ˜24 h were allowed to react with 10 μM hydrazide fluorophores for 1 h. Cells were washed and the emission of respective samples were recorded. The excitation (ex) and emission (em) wavelengths used are as follows: (FIG. 9A) DCCH (ex: 405 nm; em: 475 nm); (FIG. 9B) BODIPYH (ex: 488 nm; em: 530 nm); (FIG. 9C) TxRH (ex: 543 nm; em: 620 nm). Fluorescence in each sample was normalized to cell density. The graphs represent fluorescence of the serum starved samples relative to the control samples.
The cells were washed and imaged live using a confocal microscope. […]

The nature of data set [2]: Reaction of TFCH with biomolecule ketones, cell-free systems versus living cells. The text has this: It is believed that, in vivo, small molecules such as amino acids are involved in catalysis of the reaction.
Data set [3] can be described thus: Fluorescence quantum yield. The class given is physicochemical. The note with it: in water; 'believed to have'. The text has this:
The fluorescence “quantum yield” (φ) is the ratio of the number of photons emitted to the number absorbed. The term fluorescence quantum yield (φ) is a measure of the efficiency of photon emission through fluorescence, which is the loss of energy by a substance that has absorbed light via emission of a photon. In other words, the fluorescence quantum yield gives the probability of the excited state being deactivated by fluorescence rather than by another, non-radiative mechanism such as internal conversion or vibrational relaxation (non-radiative loss of energy as heat to the surroundings). The fluorescence intensity (F) is proportional to the amount of light absorbed, F=φ(Io-I), where lo is the intensity of the incident light and l is the intensity transmitted. […] When the concentration of the fluorescent compound is low, the fluorescence intensity is given by the equation: […].
TFCH is believed to have a quantum yield of >0.1 in water. […] “Solvent effect on absolute fluorescence quantum yield of rhodamine 6G determined using transient thermal lens technique.” Modern physics letters B 13, no. […] “Fluorescence lifetime of acridine in water-organic solvent mixtures.” Bulletin of the Chemical Society of Japan 42, no. […]

The next data set deals with lung cancer (A549) cells. Put plainly: Cellular influx and efflux of TFCH in live A549 cells. It is filed as cell-based. Here is the method:
(§1) Oxidized BSA was used as a model carbonylated biomolecule and TFCH's ability to detect it in an isolated system was tested. […] Next, the compatibility of TFCH for cell-based assays was established using lung cancer (A549) cells as a model cell line. TFCH's influx and efflux were achieved readily (<5 min) (FIGS. 21D and 21E). […] Importantly, given the turn-up property of the fluorophore, it was possible to identify carbonyls in live cells in the presence of unreacted fluorophores by a one-step high content screening (HCS)-compatible assay. Low concentration of the dye (2 µM) can detect carbonyls induced by serum starvation in live cells within 30 min (FIG. 22C). This single-step (no wash) assay format may be particularly suitable for screening molecules that have a propensity to induce cell detachment. Alternatively, excess fluorophore can be removed and the cells can be either imaged live (FIGS. 21D and 21E) or can be fixed and preserved for analysis at a later time Indeed, a similar spatial distribution and increase in carbonylation due to serum starvation was detected in both live (FIGS. 5, 19B) and fixed cells (fixed after fluorescent labeling in live cells). […] See also, (Vemula, Ni, & Fedorova, 2015).
(§2) FIGS. 21A-21B, Limit of detection (LOD) of TFCZ (hydrazone of TFCH and propanal) in A549 cell lysate. […] Emission spectra of the lysates were recorded by exciting the samples at 372 nm.

Data set [4] can be described thus: Photochemical comparison of TFCH with BzCH. It is filed as physicochemical.
A further data set addresses oxidized BSA (Bos taurus, UniProt P02769). Put plainly: Fluorescent labelling of oxidized BSA (SDS-PAGE). The class given is biochemical. The following applies: isolated system, oxidized BSA as model carbonylated biomolecule. Here is the method: as §1, §2

Sequence of oxidized BSA (P02769 25-607): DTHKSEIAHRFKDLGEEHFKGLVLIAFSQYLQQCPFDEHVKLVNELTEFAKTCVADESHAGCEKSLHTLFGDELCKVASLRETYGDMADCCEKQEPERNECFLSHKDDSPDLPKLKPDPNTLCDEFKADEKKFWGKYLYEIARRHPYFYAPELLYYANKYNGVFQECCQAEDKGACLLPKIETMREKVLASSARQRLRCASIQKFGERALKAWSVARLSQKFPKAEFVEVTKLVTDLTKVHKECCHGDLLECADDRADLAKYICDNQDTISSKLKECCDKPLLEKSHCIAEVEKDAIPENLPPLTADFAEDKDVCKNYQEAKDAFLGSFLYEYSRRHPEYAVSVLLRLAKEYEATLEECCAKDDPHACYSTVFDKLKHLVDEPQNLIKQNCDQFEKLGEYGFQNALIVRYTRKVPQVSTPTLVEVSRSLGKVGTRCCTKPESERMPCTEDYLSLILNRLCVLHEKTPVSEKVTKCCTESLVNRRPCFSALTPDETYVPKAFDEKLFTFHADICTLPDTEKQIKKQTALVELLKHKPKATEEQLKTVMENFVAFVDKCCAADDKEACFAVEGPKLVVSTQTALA

Turning to `Cc1cc(C)n2c1C=C1C=CC(CCC(=O)NN)=[N+]1[B-]2(F)F` [BODIPYH], in data set [1], the “Hydrazide + propanal Abs max” value turned out to be 503 nm, the “Hydrazide + propanal Em max” value is reported as 510 nm, the “Hydrazide Abs max” value worked out at 503 nm and the “Hydrazide Em max” value is 510 nm. The “suitability as optical probe for carbonylation in live cells” value (“suitability as optical probe” below) with A549 cells is “found suitable as optical probes for carbonylation in live cells”.

In the case of `CCN(CC)c1ccc2cc(C(=O)NN)c(=O)oc2c1` [DCCH, 7-(diethylamino)coumarin-3-carbohydrazide], in data set [1], the “Hydrazide + propanal Abs max” value was determined as 439 nm, the “Hydrazide + propanal Em max” value was 481 nm, the “Hydrazide Abs max” value is on record as 429 nm and the “Hydrazide Em max” value was 479 nm. Besides, the “suitability as optical probe” value in the data set with A549 cells was “found suitable as optical probes for carbonylation in live cells”.

As to `NNc1ccc2c(C(F)(F)F)cc(=O)oc2c1` [TFCH, 4-Trifluoromethyl-7-hydrazinyl-2H-chromen-2-one], the “reaction with biomolecule ketones in cell-free systems relative to living cells” value in data set [2] is recorded as “eight hundred times slower”. In addition, the quantum yield in data set [3] is on record as > 0.1. Also, in the data set with lung cancer (A549) cells, the “influx and efflux time” value is on record as < 5 min. For the same compound, in data set [4], the “photostability compared with BzCH” value is “more photostable than BzCH”. Besides, the “absorption at 405 nm compared with BzCH” value in data set [4] (405 nm) is “higher absorption at 405 nm than the BzCH”. In addition, the “labelling of oxidized BSA” value on oxidized BSA is “able to fluorescently label oxidized BSA and form a stable conjugate”.

Take `NNS(=O)(=O)c1ccc(C2=c3cc4c5c(c3Oc3c2cc2c6c3CCCN6CCC2)CCC[N+]=5CCC4)c(S(=O)(=O)[O-])c1` [TxRH]: in data set [1], the “Hydrazide + propanal Abs max” value is recorded as 589 nm, the “Hydrazide + propanal Em max” value is reported as 607 nm, the “Hydrazide Abs max” value was 589 nm and the “Hydrazide Em max” value is given as 607 nm. Besides, the “suitability as optical probe” value in the data set on A549 cells is listed as “found suitable as optical probes for carbonylation in live cells”.
